Here are results for ten compounds from paper PMC7524759, “Solution structure of the Hop TPR2A domain and investigation of target druggability by NMR, biochemical and in silico approaches” (Scientific Reports, 2020).

Entries after “also recorded” stand apart in the source; their conditions may differ. Like-named read-outs stand apart in the source and are kept apart here.

In assay [1] the target is T1, Hop TPR2A-Hsp90 MEEVD interaction (Homo sapiens, UniProt P31948).
T1 construct: The TPR2A domain of human Hop, residues 218-350, was cloned from full-length Hop cDNA; made in house; host or cells: Escherichia coli BL21 (DE3) pLysS
T1 sequence (P31948 218-350): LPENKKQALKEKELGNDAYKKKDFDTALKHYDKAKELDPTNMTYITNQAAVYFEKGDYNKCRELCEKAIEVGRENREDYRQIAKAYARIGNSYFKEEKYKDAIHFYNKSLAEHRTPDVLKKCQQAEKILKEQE
The assay is described as follows: LANCE (TR-FRET) proximity assay of Hop TPR2A binding to biotin-Hsp90 MEEVD peptide. As to conditions: for LE (ligand efficiency): approximated from LANCE IC50 values using number of heavy atoms. Here is the method:
Compounds containing succinic acid substructures were therefore selected to mimic the natural carboxylate clamp interaction between the Hsp90 C-terminus and TPR cochaperones. […] In this assay, compounds that block the protein-peptide interaction cause a loss in fluorescent signal.
The labelling reagents used were Surelight APC-SA and LANCE Eu-1024 Anti-6xHis (both PerkinElmer). Assays were performed in black low volume 384-well plates (Corning) with a total volume of 20 μl per well in assay buffer of 20 mM HEPES pH 7.4, 100 mM NaCl, 1 mM DTT, 0.1% Tween-20. […] Compound stocks to be screened were individually corrected to approximately neutral pH due to their highly acidic nature and dispensed using a Labcyte Echo acoustic dispenser.
Raw fluorescence or luminescence values from compound screening were converted to % inhibition of the total assay signal. IC50 values were determined by plotting % inhibition against the log10 of inhibitor concentration and fitted using a variable slope, four-parameter concentration–response curve using a robust fit in GraphPad Prism. […] To generate IC50 values, assays were repeated independently 3 times with duplicate or triplicate wells for each run. […] Ligand efficiency (LE) was approximated from LANCE biochemical IC50 values using the number of heavy atoms (HA)[67].
(Time-resolved FRET reads energy transfer from a long-lived donor to a nearby acceptor.)

The target of another assay is T2, Hop TPR2A (Homo sapiens, UniProt P31948).
T2 construct: The TPR2A domain of human Hop, residues 218-350, was cloned from full-length Hop cDNA; 6xHis (N, cleaved yes); made in house; host or cells: Escherichia coli BL21 (DE3) pLysS
T2 sequence (P31948 218-350): as above
In words: NMR 1H-15N HSQC chemical shift perturbation (CSP) titration. Type of assay: binding. The following applies: for Kd: Mean ± S.D. for 10 fitted residues.

In assay [2] the test system is FLAG-tagged Hsp90 complexes (TPR cochaperone association) from HCT116 cells. The assay is described as follows: FLAG co-immunoprecipitation Western blot of Hsp90 complexes. Type of assay: biochemical, human. On the technique in general: Immunoblotting shows a protein as a band on a membrane.
Another assay concerns the target Hsp90 (Homo sapiens). In words: ITC. The following applies: cited from earlier work.
Where [3] appears, read: n = 3 independent experiments, duplicate wells, Mean ± S.D.

Chain of Hop TPR2A (from UniProt P31948) (P31948 223-352): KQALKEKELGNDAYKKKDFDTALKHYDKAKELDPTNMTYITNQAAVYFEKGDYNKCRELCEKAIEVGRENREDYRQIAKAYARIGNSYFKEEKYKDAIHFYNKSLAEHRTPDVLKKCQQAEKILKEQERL

As for `COc1cccc(C2c3[nH]c4ccccc4c3CC3C(=O)N(c4ccc(C(=O)O)cc4)C(=O)N32)c1` (stereo not shown) [Compound 13], in assay [1], the “LE (ligand efficiency)” value amounted to 0.12. In addition, the “drop in LANCE activity compared to 11” value in assay [1] (carboxylic acid at R2 moved from ortho to para) is listed as “more than tenfold drop in activity”. For the same compound, the concentration for half-maximal inhibition (IC50) (in general, the concentration that gives 50% inhibition) in assay [1] (setting [3]) is 1180 µM.

`Cc1ccc(C2c3[nH]c4ccccc4c3CC3C(=O)N(c4ccccc4C(=O)O)C(=O)N32)cc1` (stereo not shown) [Compound 10]: in assay [1], the “LE (ligand efficiency)” value worked out at 0.15. In assay [1] (setting [3]), this compound gave an IC50 of 234 ± 75 µM. The dissociation constant (Kd) (usually the free concentration of one partner at which half of the binding sites on the other are occupied at equilibrium, for simple one-to-one binding) on Hop TPR2A worked out at 729 ± 164 µM.

Turning to `O=C(O)c1ccccc1N1C(=O)C2Cc3c([nH]c4ccccc34)C(c3ccccc3)N2C1=O` (stereo not shown) [Compound 9], the “LE (ligand efficiency)” value in assay [1] is 0.14. The IC50 in assay [1] (setting [3]) worked out at 452 ± 14 µM. Besides, the Kd on Hop TPR2A is 1410 µM.

As for `O=C(O)CCC(=O)O` [Compound 1, succinic acid], the IC50 in assay [1] is approximately 4000 µM; in assay [1] (setting [3]), 3960 µM. The “LE (ligand efficiency)” value in assay [1] stood at 0.42.

Consider `COc1cccc(C2c3[nH]c4ccccc4c3CC3C(=O)N(c4ccccc4C(=O)NCC(=O)O)C(=O)N32)c1` (stereo not shown) [Compound 8], for which, in assay [1], the “LE (ligand efficiency)” value is recorded as 0.13. This compound also yielded an IC50 in assay [1] (setting [3]) of 311 ± 37 µM.

Consider `COc1ccc(C2c3[nH]c4ccccc4c3CC3C(=O)N(c4ccccc4C(=O)NC(CC(=O)O)C(=O)O)C(=O)N32)cc1` (stereo not shown) [Compound 7], for which, in assay [1], the “LE (ligand efficiency)” value is on record as 0.13. In addition, in assay [1] (setting [3]), the IC50 came to 74 ± 3.2 µM.

Turning to `Cc1ccccc1C1c2[nH]c3ccccc3c2CC2C(=O)N(c3ccccc3C(=O)O)C(=O)N21` (stereo not shown) [Compound 12], the “LE (ligand efficiency)” value in assay [1] was 0.17. This compound had an IC50 in assay [1] (setting [3]) of 94 ± 6.4 µM. Also, the Kd at Hop TPR2A worked out at 352 ± 39 µM.

In the case of `Cc1cccc(C2c3[nH]c4ccccc4c3CC3C(=O)N(c4ccccc4C(=O)O)C(=O)N32)c1` (stereo not shown) [Compound 11], the “LE (ligand efficiency)” value in assay [1] worked out at 0.17. The compound further showed an IC50 in assay [1] (setting [3]) of 80 ± 5.8 µM. Moreover, the “TPR cochaperone association with Hsp90 complexes” value in assay [2] (added to HCT116 cell lysate, N = 1, qualitative) was “not”; in assay [2] (added to purified Hsp90 complexes, N = 1, preliminary, qualitative), “reduce TPR cochaperone association; also recorded: may disrupt binding of Hop and another TPR cochaperone, PP5”. In addition, on Hop TPR2A, the Kd came out at 177 ± 13 µM. In addition, the “CSP ∆δ” value at Hop TPR2A (residue Arg305) stood at 0.38 ppm; on Hop TPR2A (residue Asn264), 0.36 ppm; on Hop TPR2A (residue Asn308), 0.12 ppm; at Hop TPR2A (residue Lys301), 0.1 ppm.

With Hop TPR2A (from UniProt P31948), the dissociation constant Kd with Hsp90 (Homo sapiens) was 11 µM.

For `O=C(O)/C=C\C(=O)O` [Compound 2], the “LE (ligand efficiency)” value in assay [1] came to 0.47. The same compound had a half-inhibitory concentration (IC50) in assay [1] (setting [3]) of 2170 µM.
